Drawing on ChEMBL document CHEMBL4602644, “Synthesis of PJOV56, a new quinoxalinyl-hydrazone derivative able to induce autophagy and apoptosis in colorectal cancer cells, and related compounds” (Bioorg Med Chem Lett, 2020), this text covers Activity, IC50 and inhibition of growth for one compound.

The test system of assay [1] is HCT-116. Put plainly: Induction of apoptosis in human HCT116 cells assessed as late apoptotic cells at 6 uM measured after 48 hrs by annexin-V staining based flow cytometry (reference value: 0.34 %). Format: functional. For orientation: In flow cytometry, cells or beads pass a laser one at a time.
Assay [2] relates to HCT-116. In words: Induction of apoptosis in human HCT116 cells assessed as necrotic cells at 6 uM measured after 48 hrs by annexinV-PE/7-AAD staining based flow cytometric analysis (reference value: 0.16 %). The assay is classed as functional.
For assay [3], the system named is HL-60. In words: Cytotoxicity against human HL60 cells assessed as reduction in cell viability measured after 72 hrs by MTT assay. The following applies: HL-60, 72 h. Format: functional, cell-based. In general terms: Tetrazolium dyes change colour on reduction, which living cells bring about.
Assay [4] has as its system HCT-116. Put plainly: Induction of apoptosis in human HCT116 cells assessed as increase in caspase 7 expression at 3 to 6 uM measured after 48 hrs by Western blot analysis. The assay is classed as functional, cell-based.
Assay [5] deals with HCT-116. In words: Induction of apoptosis in human HCT116 cells assessed as necrotic cells at 3 uM measured after 48 hrs by annexinV-PE/7-AAD staining based flow cytometric analysis (reference value: 0.16 %). Format: functional.
In assay [6] the test system is HCT-116. In words: Induction of apoptosis in human HCT116 cells assessed as early apoptotic cells at 1.5 uM measured after 48 hrs by annexinV-PE/7-AAD staining based flow cytometric analysis (reference value: 6.53 %). The assay is classed as functional.
Assay [7] deals with HCT-116. Put plainly: Cell cycle arrest in human HCT116 cells assessed as accumulation at S phase at 3 uM measured after 48 hrs by propidium iodide staining based flow cytometry (reference value: 33.29 %). The assay is classed as functional.
Assay [8] has as its system HCT-116. Put plainly: Induction of autophagy in human HCT116 cells decrease in Beclin 1 level at 6 uM measured after 48 hrs by Western blot analysis. Format: functional, cell-based. In general terms: A western blot detects proteins with antibodies after separation by electrophoresis.
In assay [9] the test system is HCT-116. Put plainly: Induction of apoptosis in human HCT116 cells assessed as early apoptotic cells at 6 uM measured after 48 hrs by annexinV-PE/7-AAD staining based flow cytometric analysis (reference value: 6.53 %). Format: functional.
Assay [10] deals with HCT-116. Put plainly: Induction of apoptosis in human HCT116 cells assessed as early apoptotic cells at 3 uM measured after 48 hrs by annexinV-PE/7-AAD staining based flow cytometric analysis (reference value: 6.53 %). The assay is classed as functional.
The test system of a further assay is HepG2. Put plainly: Cytotoxicity against human HepG2 cells assessed as reduction in cell viability measured after 72 hrs by MTT assay. Format: functional, cell-based. The following applies: HepG2, 72 h.
In assay [11] the test system is HCT-116. Put plainly: Disruption of membrane integrity in human HCT116 cells assessed as increase in non-viable cells at 3 uM measured after 48 hrs by propidium iodide staining based flow cytometry relative to control. The assay is classed as functional.
The subject of assay [12] is HCT-116. Put plainly: Induction of morphological changes in human HCT116 cells assessed as increase in number of intracellular vesicles at 1.5 to 6 uM measured after 48 hrs by propidium iodide staining based flow cytometry. The assay is classed as functional, cell-based.
Assay [13] has as its system HL-60. In words: Cytotoxicity against human HL60 cells assessed as cell growth inhibition at 5 ug/ml measured after 72 hrs by MTT assay relative to control. The assay is classed as functional. The following applies: HL-60, 72 h, read-out: GI.
Assay [14] deals with HCT-116. In words: Disruption of membrane integrity in human HCT116 cells assessed as decrease in viable cells at 3 uM measured after 48 hrs by propidium iodide staining based flow cytometry relative to control. Format: functional.
Assay [15] deals with HCT-116. In words: Cell cycle arrest in human HCT116 cells assessed as accumulation at S phase at 1.5 uM measured after 48 hrs by propidium iodide staining based flow cytometry (reference value: 33.29 %). The assay is classed as functional.
Assay [16] deals with HCT-116. In words: Induction of morphological changes in human HCT116 cells assessed as decrease in number of mitotic cells at 1.5 to 6 uM measured after 48 hrs by propidium iodide staining based flow cytometry. Format: functional, cell-based.

The source made the active and inactive calls. The rule behind the calls is not given here.

For orientation: IC50 means the concentration needed to halve the response being measured. `C(=N\Nc1cnc2ccccc2n1)/c1ccccn1`: the Activity is listed as 25.6% in the assay with HCT-116 [1]; 7.49% in the assay with HCT-116 [2]; 0.87% in the assay on HCT-116 [5]; 5.61% in the assay with HCT-116 [6]; 55.35% with HCT-116 [7]; 8.28% in the assay on HCT-116 [9]. Besides, the Activity in the assay on HCT-116 [10] was determined as 5.18%; with HCT-116 [11] it was 9.46%; in the assay with HCT-116 [14], 90.45%; in the assay on HCT-116 [15], 34.31%. Besides, the IC50 with HL-60 [3] was 0.82 µM; with HepG2, 7.35 µM. Besides, the result in the assay with HCT-116 [4], in the assay on HCT-116 [8], in the assay with HCT-116 [12] and in the assay on HCT-116 [16] was Active. The inhibition of growth at 5 µg/mL in the assay with HL-60 [13] stood at 94.8%.
